Experimental data published in US7410989B2, “Compounds, methods and compositions useful for the treatment of bovine viral diarrhea virus (BVDV) infection and hepatitis C virus (HCV) infection” (The University of North Carolina at Chapel Hill, priority 2001, dated 2008).
Counter-ions that a name gives are not always drawn.

Key:
BVDV = assay: Screening of antiviral compounds for anti-BVDV activity in MDBK cells; virus titre by immunoperoxidase monolayer assay; type: cell-based, bovine viral diarrhea virus; conditions: for Day 3 Media TCID50/mL / Day 3 Media % Control / Day 7 Media TCID50/mL / Day 7 Media % Control: culture medium
Protocol: 2.0 cm^2 wells in a 24-well plate were seeded with 50 μl of medium from 12 ml of MEM-eq (minimum essential medium (MEM) with Earle's salts supplemented with 10% (v/v) equine serum, sodium bicarbonate (0.75 mg/ml), L-glutamine (0.29 mg/ml), penicillin G (100 U/ml), streptomycin (100 μg/ml), and amphotericin B (0.25 μg/ml)), which was derived by trypsinization of a confluent monolayer of Madin Darby Bovine Kidney (MDBK) cells in a 25 cm^2 flask. Cells were incubated at 38.5° C. with 5% CO2 for 24 hours. The average number of cells per well was determined and later used to calculate appropriate multiplicities of infection (MOI) of BVDV virus. […]
The inoculated cells incubated for one hour at 38.5° C. with 5% CO2 in humidified air. The medium was removed from the wells, and the cells washed one time with Ca^2+ and Mg^2+-free PBS comprising antiviral compound (12.5 μM) (cells in the wells not initially treated with antiviral compounds were washed without antiviral compound). […] Three days post-inoculation, medium was removed and stored at −20° C. for assay. […] Seven days post-inoculation, medium was removed and stored at −80° C. for serial dilution & assay.
The MDBK cells were resuspended in MEM-eq with no antiviral compound. Uterine tubal cells (UTC) were freeze-thawed and stored at −80° C. for analysis. UTC lysates were serially diluted with medium from Day 7 and assayed by immunoperoxidase for the presence of BVDV.
All samples were assayed for BVDV using the immunoperoxidase monolayer assay as described in A. Afshar et al., Can J Vet Res; 55:91-93 (1991). Samples were assayed in triplicate by adding 50 μL of MEM-eq containing approximately 2.5×10^3 MDBK cells to 50-μL of each sample supplemented with 50 μL of fresh MEM-eq in a 96-well culture plate. Plates were incubated for 72 h at 38.5° C. in a humidified atmosphere of 5% CO2 and air before the immunoperoxidase labeling technique was performed as follows:
After fixation, potentially infected cells were incubated with monoclonal antibodies D89 (M. L. Vickers et al., J Vet Diagn Invest 2, 300-302 (1990); Xue W et al., J Clin Microbiol 28, 1688-1693 […] specific for E2/gp53, a major envelope glycoprotein of BVDV (Xue W et al., Vet Microbiol 57, 105-118 (1997)) and 20.10.6 specific for NS3-p80, a conserved nonstructural protein (W. V. Corapi et al., Am J Vet Res 51, 1388-1394 (1990)). After washing with PBS and Tween 20 to remove unbound antibodies, peroxidase-conjugated rabbit anti-mouse IgG (Jackson Immuno Research Lab, West Grove, Pa.) was added. After a short incubation period, unbound peroxidase-conjugated antibody was removed by washing with PBS and Tween 20. Finally, the enzyme substrate, aminoethyl carbazole (Zymed Laboratories, Inc., South San Francisco, Calif.), which produces a reddish-brown color when oxidized by horseradish peroxidase, was added. Color change was visualized under light microscopy and compared to known positive and negative controls on each plate.
The tissue culture infective dose 50% (TCID50)/ml of the exposure aliquot was determined by the method of Reed and Muench (L. J. Reed and H. Muench, Am J Hygiene 27, 493-497 (1938). Results of viral detection assays were compared using a Pearson Chi-square test statistic (J. Sall and A. Lehman, JMP Start Statistics (Duxbury Press, Belmont, Calif. (1996), 195-211).

[1] = 12.5 μM compound, BVDV MOI 0.5, titre as % of no-antiviral control
[2] = compound at 0.2 μm, BVDV MOI 0.05
[3] = compound at 0.4 μm, BVDV MOI 0.05
[4] = compound at 0.7 μm, BVDV MOI 0.05
[5] = compound at 1.5 μm, BVDV MOI 0.05
[6] = compound at 3 μm, BVDV MOI 0.05
[7] = compound at 6 μm, BVDV MOI 0.05
[8] = compound at 12 μm, BVDV MOI 0.05
[9] = compound at 25 μm, BVDV MOI 0.05
[10] = 12.5 μM compound, BVDV MOI 0.05
[11] = 12.5 μM compound, BVDV MOI 0.05, titre as % of no-antiviral control
[12] = 12.5 μM compound, BVDV MOI 1.0, titre as % of no-antiviral control

## COc1cc(NC(=N)N)ccc1-c1ccc(-c2ccc(NC(=N)N)cc2OC)o1 [DB 711]
BVDV; 12.5 μM compound, BVDV MOI 0.5
  Day 3 Cell Lysates TCID50/mL: 2.00E+07 TCID50/mL
  Day 3 Media TCID50/mL: 2.40E+05 TCID50/mL
BVDV; [1]
  Day 3 Cell Lysates % Control: 322.5806%
  Day 3 Media % Control: 6.8571%

## Nc1ccc(-c2ccc(-c3nc4ccc(C5=NCCN5)cc4[nH]3)o2)cc1 [DB 456, 2-[5 (6)-{2-imidazolinyl}-2-benzimidazoyl]-5-(4-aminophenyl)furan]
BVDV; [2]
  Day 3 Cell Lysates % Control: 100.0000%
  Day 3 Cell Lysates TCID50/mL: 3.50E+05 TCID50/mL
  Day 3 Media % Control: 31.5000%
  Day 3 Media TCID50/mL: 6.30E+05 TCID50/mL
BVDV; [3]
  Day 3 Cell Lysates % Control: 1000.0000%
  Day 3 Cell Lysates TCID50/mL: 3.50E+06 TCID50/mL
  Day 3 Media % Control: 31.5000%
  Day 3 Media TCID50/mL: 6.30E+05 TCID50/mL
BVDV; [4]
  Day 3 Cell Lysates % Control: 1000.0000%
  Day 3 Cell Lysates TCID50/mL: 3.50E+06 TCID50/mL
  Day 3 Media % Control: 31.5000%
  Day 3 Media TCID50/mL: 6.30E+05 TCID50/mL
BVDV; [5]
  Day 3 Cell Lysates % Control: 1000.0000%
  Day 3 Cell Lysates TCID50/mL: 3.50E+06 TCID50/mL
  Day 3 Media % Control: 25.5000%
  Day 3 Media TCID50/mL: 5.10E+05 TCID50/mL
BVDV; [6]
  Day 3 Cell Lysates % Control: 177.1429%
  Day 3 Cell Lysates TCID50/mL: 6.20E+05 TCID50/mL
  Day 3 Media % Control: 17.5000%
  Day 3 Media TCID50/mL: 3.50E+05 TCID50/mL
BVDV; [7]
  Day 3 Cell Lysates % Control: 10.0000%
  Day 3 Cell Lysates TCID50/mL: 3.50E+04 TCID50/mL
  Day 3 Media % Control: 1.7500%
  Day 3 Media TCID50/mL: 3.50E+04 TCID50/mL
BVDV; [8]
  Day 3 Cell Lysates % Control: 1.0000%
  Day 3 Cell Lysates TCID50/mL: 3.50E+03 TCID50/mL
  Day 3 Media % Control: 0.0310%
  Day 3 Media TCID50/mL: 6.20E+02 TCID50/mL
BVDV; [9]
  Day 3 Cell Lysates % Control: 0.5714%
  Day 3 Cell Lysates TCID50/mL: 2.00E+03 TCID50/mL
  Day 3 Media % Control: 0.1750%
  Day 3 Media TCID50/mL: 3.50E+03 TCID50/mL

## Cc1cc(NC(=N)N)ccc1-c1ccc(-c2ccc(NC(=N)N)cc2C)s1 [DB 752]
BVDV; 12.5 μM compound, BVDV MOI 0.5
  Day 3 Cell Lysates TCID50/mL: 6.20E+02 TCID50/mL
  Day 3 Media TCID50/mL: Negative
BVDV; [1]
  Day 3 Cell Lysates % Control: 0.01%

## N=C(N)c1ccc(-c2ccc(-c3cccc(C(=N)N)c3)[nH]2)cc1 [DB619]
BVDV; [10]
  Day 7 Cell Lysates TCID50/mL: 1.10E+06 TCID50/mL
  Day 3 Media TCID50/mL: 3.50E+02 TCID50/mL
  Day 7 Media TCID50/mL: 2.00E+05 TCID50/mL
BVDV; [11]
  Day 7 Cell Lysates % Control: 55.00%
  Day 3 Media % Control: 0.18%
  Day 7 Media % Control: 38.46%
BVDV; 12.5 μM compound, BVDV MOI 1.0
  Day 7 Cell Lysates TCID50/mL: 3.50E+05 TCID50/mL
  Day 3 Media TCID50/mL: 6.20E+04 TCID50/mL
  Day 7 Media TCID50/mL: 3.50E+04 TCID50/mL
BVDV; [12]
  Day 7 Cell Lysates % Control: 56.45%
  Day 3 Media % Control: 17.71%
  Day 7 Media % Control: 100.00%

## COc1ccc(-c2ccc(-c3ccc(C4=NCCN4)cc3)o2)cc1 [DB 606]
BVDV; 12.5 μM compound, BVDV MOI 0.5
  Day 3 Cell Lysates TCID50/mL: Negative
  Day 3 Media TCID50/mL: Negative

## N=C(N)Nc1ccc(-c2ccc(-c3ccc(NC(=N)N)cc3Cl)o2)c(Cl)c1 [DB 708]
BVDV; 12.5 μM compound, BVDV MOI 0.5
  Day 3 Cell Lysates TCID50/mL: Negative
  Day 3 Media TCID50/mL: Negative

## Cc1cc(NC(=N)N)ccc1-c1ccc(-c2ccc(NC(=N)N)cc2C)o1.Cl.Cl
other
  melting point: 265 to 271 °C (dec.)

## CC(C)NC(=N)c1ccc2[nH]c(-c3ccc(-c4ccc([N+](=O)[O-])cc4)o3)nc2c1 [DB 458, 2-[5 (6)-{N-isopropylamidino}-2-benzimidazoyl]-5-(4-nitrophenyl)furan]
BVDV; 12.5 μM compound, BVDV MOI 0.5
  Day 3 Cell Lysates TCID50/mL: Negative
  Day 3 Media TCID50/mL: Negative

## Cl.Cl.N=C(N)Nc1ccc(-c2ccc(-c3ccc(NC(=N)N)cc3Cl)o2)c(Cl)c1
other
  melting point: 300 to 304 °C (dec.)

## Cc1cc(NC(=N)N)ccc1-c1ccc(-c2ccc(NC(=N)N)cc2C)o1 [DB 680]
BVDV; 12.5 μM compound, BVDV MOI 0.5
  Day 3 Cell Lysates TCID50/mL: Negative
  Day 3 Media TCID50/mL: Negative

## O=[N+]([O-])c1ccc(-c2ccc(-c3nc4ccc(C5=NCCN5)cc4[nH]3)o2)cc1 (as salt: salt) [DB 457, 2-[5 (6)-{2-imidazolinyl}-2-benzimidazoyl]-5-(4-nitrophenyl)furan]
other
  melting point: > 300 °C

## N=C(N)Nc1ccc(-c2ccc(-c3ccc(NC(=N)N)cc3)o2)cc1 [DB673]
BVDV; [10]
  Day 7 Cell Lysates TCID50/mL: 3.50E+04 TCID50/mL
  Day 3 Media TCID50/mL: 1.00E+02 TCID50/mL
  Day 7 Media TCID50/mL: 6.20E+03 TCID50/mL
BVDV; [11]
  Day 7 Cell Lysates % Control: 1.75%
  Day 3 Media % Control: 0.05%
  Day 7 Media % Control: 1.19%
BVDV; 12.5 μM compound, BVDV MOI 1.0
  Day 7 Cell Lysates TCID50/mL: 2.70E+05 TCID50/mL
  Day 3 Media TCID50/mL: 3.50E+02 TCID50/mL
  Day 7 Media TCID50/mL: 2.00E+05 TCID50/mL
BVDV; [12]
  Day 7 Cell Lysates % Control: 43.55%
  Day 3 Media % Control: 0.10%
  Day 7 Media % Control: 571.43%

## O=[N+]([O-])c1ccc(-c2ccc(-c3nc4ccc(C5=NCCN5)cc4[nH]3)o2)cc1 [DB 457, 2-[5 (6)-{2-imidazolinyl}-2-benzimidazoyl]-5-(4-nitrophenyl)furan]
BVDV; 12.5 μM compound, BVDV MOI 0.5
  Day 3 Cell Lysates TCID50/mL: 3.50E+02 TCID50/mL
  Day 3 Media TCID50/mL: 1.00E+02 TCID50/mL
BVDV; [1]
  Day 3 Cell Lysates % Control: 0.0056%
  Day 3 Media % Control: 0.0029%

## CC(C)NC(=N)c1ccc2[nH]c(-c3ccc(-c4ccc(N)cc4)o3)nc2c1 [DB 459, 2-[5(6)-N-isopropylamidino-2-benzimidazoyl]-5-(4-aminophenyl)furan]
BVDV; 12.5 μM compound, BVDV MOI 0.5
  Day 3 Cell Lysates TCID50/mL: 1.00E+02 TCID50/mL
  Day 3 Media TCID50/mL: Negative
BVDV; [1]
  Day 3 Cell Lysates % Control: 0.0016%

## N=C(N)Nc1ccc(-c2ccc(-c3ccc(NC(=N)N)cc3C(F)(F)F)o2)c(C(F)(F)F)c1 [DB 701]
BVDV; 12.5 μM compound, BVDV MOI 0.5
  Day 3 Cell Lysates TCID50/mL: 3.50E+04 TCID50/mL
  Day 3 Media TCID50/mL: 6.20E+03 TCID50/mL
BVDV; [1]
  Day 3 Cell Lysates % Control: 0.5645%
  Day 3 Media % Control: 0.1771%

## N=C(N)Nc1ccc(-c2ccc(-c3cccc(NC(=N)N)c3)o2)cc1 [DB 705]
BVDV; 12.5 μM compound, BVDV MOI 0.5
  Day 3 Cell Lysates TCID50/mL: Negative
  Day 3 Media TCID50/mL: Negative

## Nc1ccc(-c2ccc(-c3nc4ccc(C5=NCCN5)cc4[nH]3)o2)cc1 (as salt: salt) [DB 456, 2-[5 (6)-{2-imidazolinyl}-2-benzimidazoyl]-5-(4-aminophenyl)furan]
other
  melting point: > 300 °C
